{
  "source": "paper PMC4737989",
  "about": "(European journal of medicinal chemistry, 2016)",
  "key": {"[1]": {"biological_target": "T1, VDR-LBD / Alexa Fluor-SRC2-3 coactivator peptide (Homo sapiens, UniProt P11473, DEL165-215)", "T1 sequence (P11473 with tags, fused parts or gaps DEL165-215 limits assumed)": "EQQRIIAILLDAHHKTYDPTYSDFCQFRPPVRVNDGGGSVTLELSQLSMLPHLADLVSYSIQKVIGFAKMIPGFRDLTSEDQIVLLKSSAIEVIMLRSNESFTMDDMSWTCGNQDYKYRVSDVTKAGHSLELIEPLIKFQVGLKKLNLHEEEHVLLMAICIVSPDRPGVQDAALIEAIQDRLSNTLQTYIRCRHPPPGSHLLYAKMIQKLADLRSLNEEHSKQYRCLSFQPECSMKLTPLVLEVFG", "experiment": "VDR-coactivator binding fluorescence polarization assay, agonistic binding", "conditions": "without LG190178"}, "VP16-VDR-LBD / SRC1-GAL4 [2]": {"biological_target": "T2, VP16-VDR-LBD / SRC1-GAL4 (Homo sapiens, UniProt P11473)", "T2 sequence (P11473 127-423 limits assumed)": "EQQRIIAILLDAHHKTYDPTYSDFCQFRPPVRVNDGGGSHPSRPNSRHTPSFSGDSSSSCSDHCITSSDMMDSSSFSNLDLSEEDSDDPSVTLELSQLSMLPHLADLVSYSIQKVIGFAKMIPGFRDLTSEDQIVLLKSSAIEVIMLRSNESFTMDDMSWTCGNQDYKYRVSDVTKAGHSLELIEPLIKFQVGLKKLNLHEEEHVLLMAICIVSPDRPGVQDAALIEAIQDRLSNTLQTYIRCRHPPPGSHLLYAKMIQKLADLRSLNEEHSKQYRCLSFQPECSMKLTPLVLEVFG", "experiment": "Two-hybrid assay in HEK293T cells, inhibition in the presence of 10 nM 1,25", "assay_type": "cell-based", "conditions": "10 nM 1,25(OH)2D3"}, "HEK293T cells": {"tested_on": "HEK293T cells", "conditions": "treated HEK293 cells, Cell-TiterGlo"}, "VDR target gene CYP24A1": {"tested_on": "VDR target gene CYP24A1", "experiment": "CYP24A1 gene regulation in DU145 cells by qRT-PCR", "assay_type": "cell-based", "conditions": "7.5 μM, with 20 nM 1,25(OH)2D3, 18 hours"}, "PPARα-Gal4": {"biological_target": "T3, PPARα-Gal4 (Homo sapiens, UniProt Q07869)", "T3 sequence (Q07869 1-468)": "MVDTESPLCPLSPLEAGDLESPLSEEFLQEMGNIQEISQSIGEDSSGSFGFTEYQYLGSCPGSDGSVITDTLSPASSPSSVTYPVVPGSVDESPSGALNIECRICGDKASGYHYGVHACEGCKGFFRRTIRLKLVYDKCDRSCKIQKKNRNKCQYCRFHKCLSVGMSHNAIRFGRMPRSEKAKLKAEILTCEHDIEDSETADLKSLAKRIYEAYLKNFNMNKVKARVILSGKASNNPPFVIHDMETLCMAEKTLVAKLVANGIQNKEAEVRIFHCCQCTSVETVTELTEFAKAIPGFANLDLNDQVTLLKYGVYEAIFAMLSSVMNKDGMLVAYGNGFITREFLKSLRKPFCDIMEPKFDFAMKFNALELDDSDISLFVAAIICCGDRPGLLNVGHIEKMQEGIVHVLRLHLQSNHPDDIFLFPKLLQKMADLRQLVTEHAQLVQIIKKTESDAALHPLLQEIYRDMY", "assay_type": "cell-based", "conditions": "HEK293 cells, luminescence"}, "VP16-VDR-LBD / SRC1-GAL4 [3]": {"biological_target": "T2, VP16-VDR-LBD / SRC1-GAL4", "experiment": "Two-hybrid assay in HEK293T cells, agonist mode", "assay_type": "cell-based"}, "[4]": {"biological_target": "T1, VDR-LBD / Alexa Fluor-SRC2-3 coactivator peptide", "experiment": "VDR-coactivator binding fluorescence polarization assay, competitive inhibition"}, "VDR": {"tested_on": "VDR", "conditions": "cited from earlier work"}},
  "data": [
    {"compound": "CC(=O)O[C@@H]1CC[C@@]2(C)[C@H](CC[C@@H]3[C@@H]2CC[C@]2(C)[C@@H]([C@H](C)CCC(=O)O)CC[C@@H]32)C1", "note": "[LCA Acetate]", "values": [
      {"measurement": "VDR-LBD recruitment of SRC2-3 coactivator peptide (in words)", "setting": "[1]", "value": "not able to support"},
      {"measurement": "Inhibition of VDR-SRC1 binding in the presence of 1,25(OH)2D3 (in words)", "setting": "VP16-VDR-LBD / SRC1-GAL4 [2]", "value": "No inhibition"}
    ]},
    {"compound": "C[C@H](CCC(=O)O)[C@H]1CC[C@H]2[C@@H]3[C@@H](O)C[C@@H]4C[C@H](O)CC[C@]4(C)[C@H]3CC[C@]12C", "note": "[UDCA, ursodeoxycholic acid]", "values": [
      {"measurement": "Toxicity LD50", "setting": "HEK293T cells", "value": ">150", "unit": "µM"}
    ]},
    {"compound": "C[C@H](CCC(=O)O[C@@H]1O[C@H](C(=O)O)[C@@H](O)[C@H](O)[C@H]1O)[C@H]1CC[C@H]2[C@@H]3CC[C@@H]4C[C@H](O)CC[C@]4(C)[C@H]3CC[C@]12C", "note": "[LCA Gluc II, lithocholic acid glucuronide II]", "values": [
      {"measurement": "Induction of CYP24A1 in the presence of 1,25(OH)2D3 (in words)", "setting": "VDR target gene CYP24A1", "value": "more pronounced"},
      {"measurement": "Inhibition of VDR-SRC1 binding in the presence of 1,25(OH)2D3 (in words)", "setting": "VP16-VDR-LBD / SRC1-GAL4 [2]", "value": "no inhibition"},
      {"measurement": "Activation of transcription for the PPARα-Gal4 system", "setting": "PPARα-Gal4", "value": "no activation of transcription"}
    ]},
    {"compound": "C[C@H](CCC(=O)O)[C@H]1CC[C@H]2[C@@H]3[C@H](O)C[C@@H]4C[C@H](O)CC[C@]4(C)[C@H]3CC[C@]12C", "note": "[CDCA, chenodeoxycholic acid]", "values": [
      {"measurement": "Toxicity LD50", "setting": "HEK293T cells", "value": ">150", "unit": "µM"}
    ]},
    {"compound": "C[C@H](CCC(=O)O)[C@H]1CC[C@H]2[C@@H]3CC[C@@H]4C[C@H](O[C@@H]5O[C@H](C(=O)O)[C@@H](O)[C@H](O)[C@H]5O)CC[C@]4(C)[C@H]3CC[C@]12C", "note": "[LCA Gluc I, lithocholic acid glucuronide I]", "values": [
      {"measurement": "Inhibition of VDR-SRC1 binding in the presence of 1,25(OH)2D3 (in words)", "setting": "VP16-VDR-LBD / SRC1-GAL4 [2]", "value": "no inhibition"},
      {"measurement": "Activation of transcription for the PPARα-Gal4 system", "setting": "PPARα-Gal4", "value": "no activation of transcription"}
    ]},
    {"compound": "COC(=O)CC[C@@H](C)[C@H]1CC[C@H]2[C@@H]3CC[C@@H]4C[C@H](O)CC[C@]4(C)[C@H]3CC[C@]12C", "note": "[LCME, lithocholic acid methyl ester]", "values": [
      {"measurement": "VDR-LBD recruitment of SRC2-3 coactivator peptide (in words)", "setting": "[1]", "value": "not able to support"},
      {"measurement": "Activation in the cellular VDR-SRC1 2-hybrid assay (in words)", "setting": "VP16-VDR-LBD / SRC1-GAL4 [3]", "value": "did not activate transcription"},
      {"measurement": "Inhibition of VDR-SRC2-3 binding (in words)", "setting": "[4]; fluorescence polarization, with LG190178", "value": "inactive"}
    ]},
    {"compound": "C[C@H](CCC(=O)O)[C@H]1CC[C@H]2[C@@H]3CC[C@@H]4C[C@H](O)CC[C@]4(C)[C@H]3CC[C@]12C", "note": "[LCA, lithocholic acid]", "values": [
      {"measurement": "Reported cellular activity", "setting": "VDR", "value": "approximately 10 μM"}
    ]},
    {"compound": "C=C1/C(=C\\C=C2/CCC[C@]3(C)[C@@H]([C@H](C)CC(=O)O)CC[C@@H]23)C[C@@H](O)C[C@@H]1O", "note": "[Calcitroic Acid, calcitroic acid]", "values": [
      {"measurement": "VDR-LBD recruitment of SRC2-3 coactivator peptide (in words)", "setting": "[1]", "value": "not able to support"},
      {"measurement": "Potency of VDR-SRC2-3 inhibition relative to LCA", "setting": "[4]; ratio of IC50 values", "value": "approximately six times more potent"}
    ]}
  ]
}
